These results are taken from patent publication US10165791B2, “Use of rubusoside for reducing or suppressing certain unpleasant taste impressions” (Symrise AG, priority 2010, dated 2019).

The nature of data set [1]: Reduction of astringent and sour impression, panel of trained tasters. The settings on record: Yogurt 0.1% fat; 10 mg/kg rubusoside. It counts as in vivo, human. How it is done:
The following products, in each case without and with a flavoring composition, were assessed by a panel of trained tasters. The astringent impression and sour impression were assessed on a scale from 1 (not perceptible) to 9 (very strong) and averaged for the tasters.

For data set [2] the following is noted: isolated rubusoside from Rubus suavissimus; equivalent to 25 ppm; cited from earlier work.
A short description of data set [3]: own tests: taste of rubusoside in water. In kind it is in vivo, human. The method, then: It is known that extracts from Rubus suavissimus or certain compounds isolated therefrom are able to make sweet-tasting orally consumable preparations taste even sweeter, as described in WO 2008/049256. Moreover, it is known that isolated rubusoside from Rubus suavissimus tastes perceptibly sweet starting from a concentration of approx. 25 mg/kg (equivalent to 25 ppm) (taste recognition threshold). Rubusoside can be used as a sweetener (Hirono, S.; Chou, W. H.; Kasai, R.; Tanaka, O.; Tada, T., Sweet and bitter diterpene glucosides from leaves of Rubus suavissimus. Chemical & Pharmaceutical Bulletin 1990, 38, (6), 1743-1744).

For data set [4] the following is noted: in the presence of acids; cited from earlier work.

As for `C=C1C[C@@]23CC[C@H]4[C@@](C)(CCC[C@@]4(C)C(=O)O[C@@H]4O[C@H](CO)[C@@H](O)[C@H](O)[C@H]4O)[C@@H]2CC[C@]1(O[C@@H]1O[C@H](CO)[C@@H](O)[C@H](O)[C@H]1O)C3` [rubusoside, Rubusoside], in data set [1], the “Astringent impression (0-9) b) with test substance” value is listed as 5 and the “Sour impression (0-9) b) with test substance” value is on record as 5.5. In addition, in data set [2], the “taste recognition threshold (tastes perceptibly sweet starting from)” value is listed as “approx. 25 mg/kg”. Besides, the “sweet taste equivalent to the sweetness of an aqueous sucrose solution” value in data set [3] (100 mg/kg (100 ppm) in water) stood at 1.4%. In addition, in data set [3] (in water), the “concentration above which a recognizably bitter taste is additionally displayed” value is over 100 mg/kg.

B1: miraculin: protein that in the presence of acids transforms the sour impression into a sweet taste impression (protein, UniProt P13087 30-220, looked up)
Miraculin: DSAPNPVLDIDGEKLRTGTNYYIVPVLRDHGGGLTVSATTPNGTFVCPPRVVQTRKEVDHDRPLAFFPENPKEDVVRVSTDLNINFSAFMPCRWTSSTVWRLDKYDESTGQYFVTIGGVKGNPGPETISSWFKIEEFCGSGFYKLVFCPTVCGSCKVKCGDVGIYIDQKGRRRLALSDKPFAFEFNKTVYF
On to B1, for which the “duration of the conversion of sour impression to sweet taste” value in data set [4] is 2 to 4 h.
